{"source": "patent US5506211A", "about": "“Genistein for use in inhibiting osteroclasts” (The UAB Research Foundation, priority 1994, dated 1996)", "key": {"osteoclasts [1]": {"test_system": "osteoclasts", "test": "in vitro", "method": "(§1) Since advantageous effects are seen at 1 μM, with half maximal effects at 2-3 μM, toxicity at 30 μM indicates a broad therapeutic margin. […] It should also be noted that doses would not be designed to achieve 100%, or even 50%, inhibition as osteoclasts are vital cells. Thus, 10-20% inhibition would likely result in a clear benefit to the patient without significant side effects, particularly as over-inhibtion would be compensated for by production of PTH."}, "avian osteoclasts [2]": {"test_system": "avian osteoclasts", "test": "Bone resorption assay with [3H]-proline labeled bone and isolated osteoclasts", "assay_type": "cell-based, Gallus domesticus", "details": "for IC (essentially complete): 72 h, read-out: concentration giving essentially complete inhibition of bone resorption; for bone resorption: negative to concentration: quadruplicate assays", "method": "Arian osteoclasts were isolated from medullary bone of calcium-starved white leghorn laying hens, Gallus domesticus, essentially as described by Blair et al. (1986). […] 90-98% of cell mass of sedimenting material consists of osteoclasts or essentially inert red cells (Zambonin-Zallone et al., 1982; Blair et al., 1986). Although rich in osteoclasts, these preparations contain significant numbers of all other components of bone, including osteoblasts and marrow cells.\nCells were plated on glass cover slips in 3 cm petri plates for fluorescence studies, or 15 cm petri plates for Western Blots, or 24 well plates (2 cm^2 /well) for resorption and binding studies. For resorption and binding studies, cells were plated at 5×10^3 /well. Cells were maintained in α-MEM containing 5% fetal calf serum, 5% chicken serum, 100 μg/ml streptomycin and 100 units/ml penicillin at 37° C. in humidified air with 5% CO2.\nWhere bone was used, this was devitalized fragmented rat bone (Blair et al., 1986) sieved to sizes indicated, usually 25-50 μm. For studies of osteoclasts attached to bone or tissue culture plates, 100 μg unlabeled bone per 2 cm^2 well was used, or 5 mg per 10 cm plate.\nBone resorption was measured using [^3 H]-proline labeled bone (Blair et al., 1986)."}, "avian osteoclasts [3]": {"test_system": "avian osteoclasts", "test": "Bone resorption assay with [3H]-proline labeled bone and isolated osteoclasts", "assay_type": "cell-based, Gallus domesticus", "details": "Gallus gallus, Osteoclast, read-out: half maximal effect on bone resorption, 100 μg 3H-proline labeled bone, 10^4 osteoclasts"}, "[4]": {"test_system": "avian osteoclast membrane HCl transport", "test": "Osteoclast membrane vesicle acid transport (acridine orange fluorescence quenching)", "assay_type": "biochemical, Gallus domesticus", "details": "for effect of valinomycin on inhibited vesicle acid transport: 120 mM KCl, 5 μM herbimycin, 20 μM genistein; for IC50: osteoclast membrane vesicles, read-out: half maximal inhibition of osteoclast acid transport / acid secretion; for reversal of inhibition by by-passing chloride conductivity with valinomycin: valinomycin 2 μM, potassium 120 mM; for activity on acid transport: 25 μM"}, "[5]": {"details": "Southeast Asians, 70 mg per day; cited from earlier work"}, "osteoclasts [6]": {"test_system": "osteoclasts", "test": "Bone binding (adherence of labeled bone fragments to cultured osteoclasts)", "assay_type": "cell-based, Gallus domesticus", "method": "Bone binding was determined by adherence of bone fragments to cultured cells (Carano et al., 1990). Briefly, this entailed adding labeled bone fragments to 3 day osteoclast cultures, incubating 4 h at 37° C. in a α-MEM with 5% fetal calf serum and 5% chicken serum, washing with PBS […], solubilizing the label overnight in 6N HCl, and scintillation counting."}, "Aqueous solubility": {"test": "Aqueous solubility", "assay_type": "physicochemical", "method": "(§2) The low aqueous solubility of genistein (<50 μg per ml) should also be considered. This might result in a maximum total absorption independent of dose. […] The present inventors have used this delivery method for studies performed in rats. […] NaTC is a naturally occurring bile salt and may have a role in the absorption of genistein released from food."}, "in vitro": {"test": "in vitro", "details": "osteoclasts", "method": "as §1"}, "[7]": {"test": "Biliary appearance of intestinally administered genistein in rats", "assay_type": "in vivo", "details": "rat, bile, intestinal administration with NaTC, over a 4 hr period, read-out: fraction of administered genistein appearing in bile", "method": "as §2"}}, "note": "Where “and” joins values, the source holds several entries; their conditions need not be identical. Equal values may be shown once. Read-outs that look alike come from different tables or passages of the source.", "data": [{"smiles": "CO[C@H]1[C@@H](OC)C[C@H](C)[C@@H](OC)C2=CC(=O)C=C(NC(=O)/C(C)=C/C=C\\[C@H](OC)[C@@H](OC(N)=O)/C(C)=C/[C@@H]1C)C2=O", "note": "[Herbimycin A]", "values": [{"measurement": "toxicity relative to genistein", "setting": "osteoclasts [1]", "result": "about ten times more toxic"}, {"measurement": "toxicity threshold relative to genistein, fold lower", "setting": "osteoclasts [1]; chicken", "result": "about 10 fold"}, {"measurement": "IC (essentially complete)", "setting": "avian osteoclasts [2]; Gallus gallus, Osteoclast", "result": 1, "unit": "µM"}, {"measurement": "IC50", "setting": "avian osteoclasts [3]", "result": "300 to 500", "unit": "nM"}, {"measurement": "effective dose on osteoclast acid secretion relative to genistein, fold lower", "setting": "[4]", "result": "about 10 fold"}, {"measurement": "effect of valinomycin on inhibited vesicle acid transport", "setting": "[4]", "result": "restored acid transport activity"}, {"measurement": "IC50", "setting": "[4]", "result": "~2000", "unit": "nM"}, {"measurement": "reversal of inhibition by by-passing chloride conductivity with valinomycin", "setting": "[4]", "result": "partially reversed"}]}, {"smiles": "N#CC(C#N)=Cc1cc(O)c(O)c(O)c1", "note": "[Tyrphostin A25]", "values": [{"measurement": "activity on acid transport", "setting": "[4]", "result": "inactive"}]}, {"smiles": "N#CC(=Cc1ccc(O)c(O)c1)C(N)=S", "note": "[Tyrphostin A47]", "values": [{"measurement": "bone resorption: negative to concentration", "setting": "avian osteoclasts [2]", "result": "> 20", "unit": "µM"}, {"measurement": "IC50", "setting": "[4]", "result": 12000, "unit": "nM"}]}, {"smiles": "O=c1c(-c2ccc(O)cc2)coc2cc(O)ccc12", "note": "[daidzein, 4',7-dihydroxyisoflavone]", "values": [{"measurement": "effect on bone resorption", "setting": "avian osteoclasts [2]; 10 μM", "result": "no effect"}, {"measurement": "inhibition at 30 µM", "setting": "avian osteoclasts [2]; Gallus gallus, Osteoclast, 30 μM", "result": "~10", "unit": "%"}, {"measurement": "activity in the osteoclast assay systems", "setting": "avian osteoclasts [2]; osteoclast assay systems disclosed", "result": "negligible activity"}, {"measurement": "bone resorption: negative to concentration", "setting": "avian osteoclasts [2]", "result": "> 20", "unit": "µM"}, {"measurement": "activity on acid transport", "setting": "[4]", "result": "inactive"}, {"measurement": "inhibition of osteoclast acid transport", "setting": "[4]; 30 μM", "result": "< 20", "unit": "%"}]}, {"smiles": "O=c1c(-c2ccc(O)cc2)coc2cc(O)cc(O)c12", "note": "[genistein, 5,7,4'-trihydroxyisoflavone]", "values": [{"measurement": "ill effects of dietary intake", "setting": "[5]", "result": "without obvious ill effects"}, {"measurement": "effect on osteoclast binding to bone", "setting": "osteoclasts [6]", "result": "alter the ability of osteoclasts to bind to bone"}, {"measurement": "aqueous solubility when mixed with bile salt", "setting": "Aqueous solubility; mixed with sodium taurocholate (NaTC)", "result": "substantially enhanced"}, {"measurement": "solubility", "setting": "Aqueous solubility; water", "result": "< 50", "unit": "µg/mL"}, {"measurement": "MCC", "setting": "in vitro; chicken", "result": 30, "unit": "µM"}, {"measurement": "selectivity ratio", "setting": "in vitro", "result": "~30"}, {"measurement": "time in which cells die", "setting": "osteoclasts [1]; 30 μM genistein", "result": "2 to 3", "unit": "days"}, {"measurement": "inhibition of bone resorption / degradation (FIG. 1)", "setting": "avian osteoclasts [2]", "result": "significantly inhibited"}, {"measurement": "IC (essentially complete)", "setting": "avian osteoclasts [2]; Gallus gallus, Osteoclast, at 3 days", "result": 20, "unit": "µM"}, {"measurement": "inhibition of bone resorption / degradation (FIG. 1)", "setting": "avian osteoclasts [2]; listed as Genistein", "result": "significantly inhibits"}, {"measurement": "level effective at inhibiting osteoclast acid secretion", "setting": "[4]", "result": "less than 1 μM and < 0.27 μg/ml"}, {"measurement": "effect of valinomycin on inhibited vesicle acid transport", "setting": "[4]", "result": "valinomycin insensitive"}, {"measurement": "inhibition of osteoclast cell membrane acid transport (FIG. 2)", "setting": "[4]; doses comparable to those inhibiting bone resorption", "result": "inhibited"}, {"measurement": "IC50", "setting": "[4]", "result": "~3000", "unit": "nM"}, {"measurement": "reversal of inhibition by by-passing chloride conductivity with valinomycin", "setting": "[4]", "result": "not reversed"}, {"measurement": "dose excreted at 4 h", "setting": "[7]", "result": "40 to 50", "unit": "%"}]}]}
